Source: the supplement of paper PMC10307832

Assays:
Test in all cases: relative viability (nuclei count vs DMSO), 5 days (fraction); higher = more cells survive
[1] = compound: OCc1c[nH]c2ccccc12 [Indole-3-carbinol] + O=C(c1cc(Cc2n[nH]c(=O)c3ccccc23)ccc1F)N1CCN(C(=O)C2CC2)CC1 [Olaparib] (partner 8 µM)
In short: (§1)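 The day after seeding in 1536-well plates, lung cancer cell lines were treated by pin tool with a single drug, or with a fixed anchor-drug dose together with five library-drug doses (not always all listed) in √10 steps. After 5 days, a combined fix-and-stain solution (final 0.05% Triton X-100, 1% formaldehyde, 1 ug/ml Hoechst) was added. Nuclei counted on 4× images gave relative viability as treated counts over vehicle counts, reported as the median of duplicate plates.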

[2] = compound: OCc1c[nH]c2ccccc12 [Indole-3-carbinol] + Nc1nc2[nH]cc(CCc3ccc(C(=O)N[C@@H](CCC(=O)O)C(=O)O)cc3)c2c(=O)[nH]1 [Pemetrexed] (partner 0.2 µM)
In short: as §1

[3] = compound: OCc1c[nH]c2ccccc12 [Indole-3-carbinol] + C[C@]1(O)C[C@@H](c2nc(-c3ccc4ccc(-c5ccccc5)nc4c3)c3c(N)nccn32)C1 [Linsitinib] (partner 1 µM)
In short: as §1

[4] = compound: OCc1c[nH]c2ccccc12 [Indole-3-carbinol] + C[C@@H](Oc1cc(-c2cnn(C3CCNCC3)c2)cnc1N)c1c(Cl)ccc(F)c1Cl [Crizotinib] (partner 1 µM)
In short: as §1

[5] = compound: OCc1c[nH]c2ccccc12 [Indole-3-carbinol] + CC(=O)Nc1cccc(-n2c(=O)n(C3CC3)c(=O)c3c(Nc4ccc(I)cc4F)n(C)c(=O)c(C)c32)c1 [Trametinib] (partner 0.02 µM)
In short: as §1

| Cell Line | relative viability ([1]; first compound 0.253 µM) | relative viability ([1]; first compound 0.8 µM) | relative viability ([1]; first compound 2.53 µM) | relative viability ([1]; first compound 8 µM) | relative viability ([2]; first compound 0.253 µM) | relative viability ([2]; first compound 0.8 µM) | relative viability ([2]; first compound 2.53 µM) | relative viability ([2]; first compound 8 µM) | relative viability ([3]; first compound 0.253 µM) | relative viability ([3]; first compound 0.8 µM) | relative viability ([3]; first compound 2.53 µM) | relative viability ([3]; first compound 8 µM) | relative viability ([4]; first compound 0.253 µM) | relative viability ([4]; first compound 0.8 µM) | relative viability ([4]; first compound 2.53 µM) | relative viability ([4]; first compound 8 µM) | relative viability ([5]; first compound 0.253 µM) | relative viability ([5]; first compound 0.8 µM) | relative viability ([5]; first compound 2.53 µM) | relative viability ([5]; first compound 8 µM) |
| --- | --- | --- | --- | --- | --- | --- | --- | --- | --- | --- | --- | --- | --- | --- | --- | --- | --- | --- | --- | --- |
| 201T | 0.849 | 0.856 | 0.843 | 0.848 | 0.345 | 0.354 | 0.362 | 0.322 | 1.03 | 0.975 | 1.1 | 1.05 | 1.03 | 1.02 | 1.07 | 1.01 | 0.704 | 0.705 | 0.697 | 0.692 |
| A-427 | 0.661 | 0.714 | 0.788 | 0.728 | 0.997 | 1.03 | 0.926 | 0.946 | 1.1 | 1.06 | 1.09 | 1.08 | 0.888 | 0.847 | 1.18 | 0.828 | 0.713 | 0.717 | 0.76 | 0.685 |
| ABC-1 | 0.855 | 0.97 | 0.87 | 0.761 | – | – | – | – | 0.931 | 1.04 | 0.82 | 0.706 | 0.973 | 0.925 | 1.39 | 1.33 | – | – | – | – |
| BEN | 1.09 | 1.05 | 1.12 | 1.06 | 0.75 | 0.704 | 0.757 | 0.905 | 0.863 | 0.827 | 0.84 | 0.847 | 0.857 | 0.722 | 0.917 | 0.743 | 0.995 | 1.14 | 1.03 | 0.936 |
| CAL-12T | 0.672 | 0.834 | 0.717 | 0.66 | 1.28 | 1.44 | 1.12 | 1.24 | 0.835 | 0.846 | 0.832 | 0.71 | 0.657 | 0.866 | 0.718 | 0.639 | 0.361 | 0.411 | 0.31 | 0.295 |
| COR-L23 | 0.37 | 0.411 | 0.372 | 0.31 | 0.193 | 0.202 | 0.198 | 0.209 | 0.962 | 0.862 | 0.993 | 0.786 | 0.751 | 0.724 | 0.748 | 0.485 | 0.619 | 0.557 | 0.703 | 0.549 |
| COR-L 105 | 0.642 | 0.655 | 0.713 | 0.685 | 1.09 | 0.996 | 1.19 | 0.981 | 0.693 | 0.767 | 0.99 | 0.65 | 0.93 | 0.681 | 0.781 | 0.731 | 0.407 | 0.405 | 0.473 | 0.428 |
| ChaGo-K-1 | 0.427 | 0.45 | 0.415 | 0.387 | 0.258 | 0.258 | 0.27 | 0.257 | – | – | – | – | 1.21 | 1.04 | 1.18 | 1.1 | 0.91 | 0.905 | 0.832 | 0.885 |
| EKVX | 0.797 | 0.938 | 0.851 | 0.85 | 0.4 | 0.46 | 0.413 | 0.452 | 1.03 | 1.03 | 0.973 | 0.976 | 1.09 | 1.24 | 0.648 | 0.864 | 0.298 | 0.344 | 0.297 | 0.313 |
| EMC-BAC-2 | 0.493 | 0.51 | 0.504 | 0.467 | 0.393 | 0.441 | 0.439 | 0.448 | 0.827 | 0.823 | 0.806 | 0.771 | 0.72 | 0.785 | 0.794 | 0.666 | 0.789 | 0.918 | 0.879 | 0.849 |
| EPLC-272H | 0.894 | 0.993 | 0.627 | 0.914 | 0.34 | 0.349 | 0.36 | 0.349 | 1.38 | 1.28 | 1.24 | 1.11 | 0.997 | 1.14 | 0.947 | 1.01 | 0.293 | 0.268 | 0.296 | 0.275 |
| H3255 | 0.589 | 0.553 | 0.617 | 0.552 | 0.547 | 0.54 | 0.637 | 0.625 | 0.916 | 0.983 | 0.928 | 0.897 | 0.865 | 0.817 | 0.968 | 0.759 | 0.515 | 0.643 | 0.57 | 0.589 |
| HARA | 0.568 | 0.77 | 0.331 | 0.701 | 0.267 | 0.239 | 0.243 | 0.242 | 0.92 | 0.979 | 1.06 | 0.978 | 1.11 | 1.23 | 1.06 | 0.987 | 0.673 | 0.834 | 0.818 | 0.652 |
| HCC-15 | 0.722 | 0.747 | 0.684 | 0.685 | 0.214 | 0.226 | 0.205 | 0.235 | 0.845 | 1.02 | 0.824 | 0.843 | 0.79 | 0.879 | 0.852 | 0.763 | 0.414 | 0.458 | 0.391 | 0.395 |
| HCC-44 | 1 | 1.02 | 0.966 | 0.962 | 0.679 | 0.659 | 0.694 | 0.541 | 0.74 | 0.705 | 0.614 | 0.625 | 0.891 | 0.946 | 0.913 | 0.782 | 1.05 | 1.13 | 1.09 | 1.04 |
| HCC-78 | 0.958 | 0.758 | 0.798 | 0.819 | 0.89 | 0.947 | 0.929 | 0.891 | 0.534 | 0.449 | 0.547 | 0.538 | 0.307 | 0.328 | 0.369 | 0.342 | 0.717 | 0.644 | 0.793 | 0.77 |
